Holding throughout (assay): relative viability (nuclei count vs DMSO), 5 days (fraction); higher = more cells survive
Compound in assay [1]: C[As](C)SC[C@H](NC(=O)CC[C@H](N)C(=O)O)C(=O)NCC(=O)O [Darinaparsin] + C[C@]1(O)C[C@@H](c2nc(-c3ccc4ccc(-c5ccccc5)nc4c3)c3c(N)nccn32)C1 [Linsitinib] (partner 1 µM)
An outline of the steps: (§1)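 Dosing by pin tool came one day after lung cancer cell lines were seeded in 1536-well plates, using either one drug or a fixed anchor-drug dose plus five library-drug doses (not always all listed) in √10 steps. After 5 days, nuclei were counted on 4× images. Relative viability is treated-well nuclei count divided by vehicle-well nuclei count, and values are medians of duplicate plates.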

Compound in the assay “QS11 + Foretinib”: C1CC2=C(C1)C=C(C=C2)OC3=NC(=C4C(=N3)N(C=N4)CC5=CC=C(C=C5)C6=CC=CC=C6)N[C@@H](CC7=CC=CC=C7)CO [QS11] + COc1cc2c(Oc3ccc(NC(=O)C4(C(=O)Nc5ccc(F)cc5)CC4)cc3F)ccnc2cc1OCCCN1CCOCC1 [Foretinib] (partner 0.25 µM)
Summed up: as §1

Compound in the assay “QS11 + Linsitinib”: C1CC2=C(C1)C=C(C=C2)OC3=NC(=C4C(=N3)N(C=N4)CC5=CC=C(C=C5)C6=CC=CC=C6)N[C@@H](CC7=CC=CC=C7)CO [QS11] + C[C@]1(O)C[C@@H](c2nc(-c3ccc4ccc(-c5ccccc5)nc4c3)c3c(N)nccn32)C1 [Linsitinib] (partner 1 µM)
Summed up: as §1

Compound in assay [2]: C[As](C)SC[C@H](NC(=O)CC[C@H](N)C(=O)O)C(=O)NCC(=O)O [Darinaparsin] + Cc1cc(Nc2cc(N3CCN(C)CC3)nc(Sc3ccc(NC(=O)C4CC4)cc3)n2)n[nH]1 [Tozasertib] (partner 0.1 µM)
Summed up: as §1

In the case of LOU-NH91, the relative viability in assay [1] (first compound 0.08 µM) was 0.962; in assay [1] (first compound 0.8 µM), 0.92; in assay [1] (first compound 2.53 µM), 0.952; in assay [1] (first compound 8 µM) it was 0.946; with QS11 + Foretinib (first compound 0.08 µM), 0.854; with QS11 + Foretinib (first compound 0.253 µM), 0.926. For the same cell line, the relative viability with QS11 + Foretinib (first compound 0.8 µM) is 0.904; with QS11 + Foretinib (first compound 2.53 µM), 0.875; with QS11 + Foretinib (first compound 8 µM), 0.94; with QS11 + Linsitinib (first compound 0.08 µM), 0.901; with QS11 + Linsitinib (first compound 0.253 µM), 0.862; in the assay with QS11 + Linsitinib (first compound 2.53 µM), 0.891. Besides, the relative viability with QS11 + Linsitinib (first compound 8 µM) was determined as 0.876; in assay [2] (first compound 0.08 µM), 0.743; in assay [2] (first compound 0.8 µM), 0.647; in assay [2] (first compound 2.53 µM) it was 0.666; in assay [2] (first compound 8 µM), 0.761.
Regarding LU99A, the relative viability in assay [1] (first compound 0.08 µM) came out at 0.618; in assay [1] (first compound 0.8 µM), 0.633; in assay [1] (first compound 2.53 µM), 0.475; in assay [1] (first compound 8 µM), 0.581; with QS11 + Foretinib (first compound 0.08 µM) it was 0.785; with QS11 + Foretinib (first compound 0.253 µM), 0.796. Further, the relative viability with QS11 + Foretinib (first compound 0.8 µM) is 0.855; in the assay with QS11 + Foretinib (first compound 2.53 µM) it was 0.772; with QS11 + Foretinib (first compound 8 µM) it was 0.748; with QS11 + Linsitinib (first compound 0.08 µM), 0.529; with QS11 + Linsitinib (first compound 0.253 µM), 0.561; with QS11 + Linsitinib (first compound 0.8 µM), 0.555. In addition, the relative viability with QS11 + Linsitinib (first compound 2.53 µM) amounted to 0.465; in the assay with QS11 + Linsitinib (first compound 8 µM), 0.38; in assay [2] (first compound 0.08 µM), 0.262; in assay [2] (first compound 0.8 µM) it was 0.295; in assay [2] (first compound 2.53 µM), 0.256; in assay [2] (first compound 8 µM), 0.243.
With LXF-289, the relative viability in assay [1] (first compound 0.08 µM) is 0.986; in assay [1] (first compound 0.8 µM) it was 0.995; in assay [1] (first compound 2.53 µM), 0.796; in assay [1] (first compound 8 µM), 1.04; in the assay with QS11 + Foretinib (first compound 0.08 µM), 0.994; in the assay with QS11 + Foretinib (first compound 0.253 µM) it was 1.05. The relative viability turned out to be 0.704 with QS11 + Foretinib (first compound 0.8 µM); 0.875 in the assay with QS11 + Foretinib (first compound 2.53 µM); 0.834 in the assay with QS11 + Foretinib (first compound 8 µM); 0.977 with QS11 + Linsitinib (first compound 0.08 µM); 1.01 with QS11 + Linsitinib (first compound 0.253 µM); 0.681 with QS11 + Linsitinib (first compound 0.8 µM). Further, the relative viability in the assay with QS11 + Linsitinib (first compound 2.53 µM) was found to be 0.896; with QS11 + Linsitinib (first compound 8 µM) it was 0.72; in assay [2] (first compound 0.08 µM), 0.204; in assay [2] (first compound 0.8 µM) it was 0.195; in assay [2] (first compound 2.53 µM) it was 0.204; in assay [2] (first compound 8 µM), 0.229.
As to NCI-H23, the relative viability in assay [1] (first compound 0.08 µM) worked out at 0.661; in assay [1] (first compound 0.8 µM), 0.635; in assay [1] (first compound 2.53 µM) it was 0.482; in assay [1] (first compound 8 µM) it was 0.685; with QS11 + Foretinib (first compound 0.08 µM), 1.01; with QS11 + Foretinib (first compound 0.253 µM), 1.1. Further, the relative viability came out at 0.753 in the assay with QS11 + Foretinib (first compound 0.8 µM); 0.863 with QS11 + Foretinib (first compound 2.53 µM); 0.961 with QS11 + Foretinib (first compound 8 µM); 0.624 in the assay with QS11 + Linsitinib (first compound 0.08 µM); 0.528 in the assay with QS11 + Linsitinib (first compound 0.253 µM); 0.561 with QS11 + Linsitinib (first compound 0.8 µM). Besides, the relative viability in the assay with QS11 + Linsitinib (first compound 2.53 µM) stood at 0.477; with QS11 + Linsitinib (first compound 8 µM), 0.404; in assay [2] (first compound 0.08 µM), 0.372; in assay [2] (first compound 0.8 µM) it was 0.333; in assay [2] (first compound 2.53 µM), 0.348; in assay [2] (first compound 8 µM), 0.754.
With NCI-H322M, the relative viability was determined as 1.05 in assay [1] (first compound 0.08 µM); 0.998 in assay [1] (first compound 0.8 µM); 0.736 in assay [1] (first compound 2.53 µM); 0.956 in assay [1] (first compound 8 µM); 1.06 with QS11 + Foretinib (first compound 0.08 µM); 1.04 with QS11 + Foretinib (first compound 0.253 µM). Besides, the relative viability in the assay with QS11 + Foretinib (first compound 0.8 µM) came out at 1.06; with QS11 + Foretinib (first compound 2.53 µM), 1.09; in the assay with QS11 + Foretinib (first compound 8 µM), 1.44; with QS11 + Linsitinib (first compound 0.08 µM), 0.93; in the assay with QS11 + Linsitinib (first compound 0.253 µM), 0.914; with QS11 + Linsitinib (first compound 0.8 µM), 0.931. For the same cell line, the relative viability with QS11 + Linsitinib (first compound 2.53 µM) was determined as 1.02; with QS11 + Linsitinib (first compound 8 µM), 0.936; in assay [2] (first compound 0.08 µM), 0.564; in assay [2] (first compound 0.8 µM), 0.464; in assay [2] (first compound 2.53 µM) it was 0.423; in assay [2] (first compound 8 µM), 0.492.
Take NCI-H358: the relative viability came to 0.753 in assay [1] (first compound 0.08 µM); 0.601 in assay [1] (first compound 0.8 µM); 0.665 in assay [1] (first compound 2.53 µM); 0.68 in assay [1] (first compound 8 µM); 0.596 with QS11 + Foretinib (first compound 0.08 µM); 0.777 with QS11 + Foretinib (first compound 0.253 µM). Besides, the relative viability was 1 with QS11 + Foretinib (first compound 0.8 µM); 0.936 in the assay with QS11 + Foretinib (first compound 2.53 µM); 0.52 with QS11 + Foretinib (first compound 8 µM); 0.731 in the assay with QS11 + Linsitinib (first compound 0.08 µM); 0.779 with QS11 + Linsitinib (first compound 0.253 µM); 0.952 with QS11 + Linsitinib (first compound 0.8 µM). Moreover, the relative viability came out at 1.49 in the assay with QS11 + Linsitinib (first compound 2.53 µM); 1.33 in the assay with QS11 + Linsitinib (first compound 8 µM); 0.1 in assay [2] (first compound 0.08 µM); 0.102 in assay [2] (first compound 0.8 µM); 0.124 in assay [2] (first compound 2.53 µM); 0.101 in assay [2] (first compound 8 µM).
For the cell line NCI-H441, the relative viability in assay [1] (first compound 0.08 µM) is 0.755; in assay [1] (first compound 0.8 µM), 0.506; in assay [1] (first compound 2.53 µM) it was 0.497; in assay [1] (first compound 8 µM), 0.47; with QS11 + Foretinib (first compound 0.08 µM) it was 1.01; with QS11 + Foretinib (first compound 0.253 µM) it was 1.19. Besides, the relative viability with QS11 + Foretinib (first compound 0.8 µM) came out at 0.97; in the assay with QS11 + Foretinib (first compound 2.53 µM), 0.775; with QS11 + Foretinib (first compound 8 µM), 0.746; with QS11 + Linsitinib (first compound 0.08 µM), 0.519; with QS11 + Linsitinib (first compound 0.253 µM) it was 0.544; in the assay with QS11 + Linsitinib (first compound 0.8 µM) it was 0.613. Moreover, the relative viability was determined as 0.561 in the assay with QS11 + Linsitinib (first compound 2.53 µM); 0.601 in the assay with QS11 + Linsitinib (first compound 8 µM); 0.839 in assay [2] (first compound 0.08 µM); 0.673 in assay [2] (first compound 0.8 µM); 0.72 in assay [2] (first compound 2.53 µM); 0.539 in assay [2] (first compound 8 µM).
For the cell line NCI-H460, the relative viability in assay [1] (first compound 0.08 µM) amounted to 0.814; in assay [1] (first compound 0.8 µM) it was 1.04; in assay [1] (first compound 2.53 µM), 0.713; in assay [1] (first compound 8 µM), 1.22; with QS11 + Foretinib (first compound 0.08 µM) it was 1.07; with QS11 + Foretinib (first compound 0.253 µM), 0.939. The relative viability with QS11 + Foretinib (first compound 0.8 µM) is 0.731; with QS11 + Foretinib (first compound 2.53 µM), 1.05; with QS11 + Foretinib (first compound 8 µM), 0.626; in the assay with QS11 + Linsitinib (first compound 0.08 µM) it was 0.874; with QS11 + Linsitinib (first compound 0.253 µM), 0.976; with QS11 + Linsitinib (first compound 0.8 µM), 0.725. Moreover, the relative viability with QS11 + Linsitinib (first compound 2.53 µM) was 0.479; with QS11 + Linsitinib (first compound 8 µM), 0.073; in assay [2] (first compound 0.08 µM), 0.735; in assay [2] (first compound 0.8 µM), 0.438; in assay [2] (first compound 2.53 µM) it was 0.326; in assay [2] (first compound 8 µM), 0.792.

Values taken from the supplement of paper PMC10307832.
